# Assay results from the METLIN SMRT retention time set (Domingo-Almenara et al. 2019).
# Assay: gradient 5% acetonitrile 3 min, to 50% in 2 min, to 85% in 15 min, held 3 min, 100 µL/min
# Conditions: column: Zorbax Extend-C18 2.1 x 50 mm; eluents: water / acetonitrile, 0.1% formic acid
# Method in brief: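 Mixtures of ~100 pure standards were chromatographed on a Zorbax Extend-C18 column (2.1 × 50 mm, 1.8 μm) at 100 μL/min using water and acetonitrile, each with 0.1% formic acid. Detection used a quadrupole time-of-flight mass spectrometer in positive and negative ionization mode, and data collection spanned 3 months. Retention time was obtained from adduct peaks picked computationally and each checked manually.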
row,RP-LC retention time,Structure (SMILES)
1,622 s,O=C(NC1CCCCC1)C1CCCN(C(=O)c2cc(-c3cccnc3)n[nH]2)C1 (centres undefined)
2,1250 s,Cc1cc(C)cc(-c2nnc(Cc3nc(-c4cccc(C(F)(F)F)c4)no3)o2)c1
3,746 s,Cc1ccc(CNC(=O)C(=O)NCC(c2ccc3c(c2)CCCN3C)N2CCCC2)cc1 (centres undefined)
4,982 s,CSc1ccc(CCNC(=O)c2nnc(-c3ccc(S(=O)(=O)N4CCCC4)cc3)o2)cc1
5,794 s,CCOC(=O)c1ccc(NC(=O)CSc2nnc(-c3cccn(CC)c3=O)n2C)cc1
6,971 s,O=C(Nc1ccccc1)C1CCCN(c2nc3ccsc3c(=O)n2Cc2ccc(F)cc2)C1 (centres undefined)
7,622 s,O=C(NCc1ccnc(N2CCCCCC2)c1)Nc1ccc2c(c1)OCO2
8,628 s,CN(C)C(=O)c1cc2c(s1)CCC(C(=O)NCc1ccccc1)C2 (centres undefined)
9,733 s,O=C(NCC1CCOCC1)c1cccc(Br)c1
10,812 s,CCCn1cnc2ccc(-c3noc(-c4ccccc4F)n3)cc21
11,764 s,Cc1cc(C)n2nc(SCC(=O)Nc3ccc(C)c(C)c3)nc2n1
12,878 s,COc1ccc(-c2noc(C3CC(=O)N(c4cccc(Cl)c4)C3)n2)c(OC)c1 (centres undefined)
13,875 s,CCOC(=O)c1cccc(Nc2c(-c3ccccc3)nc3cnccn23)c1
14,737 s,Clc1ccc(Cl)c(-c2ccc(CNCc3ccco3)o2)c1
15,831 s,O=c1c(Nc2ccc(F)c(Cl)c2)nc2ccncc2n1Cc1ccccc1
16,789 s,CCC(=O)N1CCc2cc(N3CC(C(=O)Nc4ccc(C)cc4Cl)CC3=O)ccc21 (centres undefined)
17,806 s,COc1ccccc1Nc1c(-c2ccc(OC)c(OC)c2)nc2cnccn12
18,714 s,O=C(COc1ccc(Cl)cc1)N1C[C@H]2C[C@H](C1)[C@H]1CCCC(=O)N1C2
19,788 s,COC(=O)c1ncn2c1C(=O)N(Cc1ccc(C)cc1)C(C)(C(=O)NCc1ccc(C)cc1)C2 (centres undefined)
20,866 s,COc1cccc(-n2cc(C(=O)OCc3cc(=O)n4ccccc4n3)c3ccccc3c2=O)c1
21,1060 s,Cc1c(-c2noc(-c3ccccc3)n2)nnn1Cc1ccccc1
22,898 s,O=C(NCCc1c[nH]c2ccccc12)c1cn(-c2ccc(F)cc2)nn1

row,RP-LC retention time,Structure (SMILES)
1,745 s,Cc1nn(C)c2c(=O)n(CC(=O)NCc3ccc(Br)cc3)ccc12
2,769 s,O=C(NCc1cccs1)C1CCN(c2nnc(-c3ccccc3)o2)CC1
3,998 s,O=S(=O)(c1ccc2nc(N3CCN(c4ccccc4F)CC3)ccc2c1)N1CCCC1
4,635 s,O=C(NCCc1ccccc1)N1CCCC(Cn2cnc3cccnc32)C1 (centres undefined)
5,1060 s,Cc1ccc(-c2nc(N3CC4(C)CC3CC(C)(C)C4)c3ccccc3n2)cc1 (centres undefined)
6,731 s,O=C([C@H]1C[C@@H](F)CN1S(=O)(=O)c1ccc(F)c(Cl)c1)N1CCOCC1
7,1150 s,C=CCN(Cc1nc(-c2ccc(C)cc2)no1)C(=O)Nc1cccc(Cl)c1
8,864 s,Cc1ccc2[nH]cc(CCN3CC(C(=O)Nc4nnc(CC(C)(C)C)s4)CC3=O)c2c1 (centres undefined)
9,650 s,O=C1NCCCn2cc(S(=O)(=O)Nc3ccc(F)cc3Cl)cc21
10,707 s,Cc1ccc(CN2CCC(CNC(=O)c3sc4ncccc4c3-n3cccc3)C2)cc1 (centres undefined)
11,768 s,O=C(Cc1nnc(-c2ccc3ncccc3c2)o1)Nc1cccc(Cl)c1
12,658 s,Cn1nc(C(=O)N2CCCC(C(=O)N3CCCC3)C2)c2c1CCN(C(=O)c1ccccc1F)C2 (centres undefined)
13,949 s,Cc1nc(-c2ccc(N3CCN(C(=O)COc4ccc(Cl)cc4)CC3)nc2)sc1C
14,844 s,COc1ccc(NC(=O)Cn2nc3nc(N4CCCC(C)C4)ccn3c2=O)cc1OC (centres undefined)
15,797 s,COc1cc(C(CC(=O)N2CCCCCC2)N2Cc3ccccc3C2=O)cc(OC)c1OC (centres undefined)
16,647 s,CCCCn1nnnc1NCc1ccc2c(c1)n(C)c(=O)n2C
17,656 s,CCOC(=O)C1=C(CN2CCC(C)CC2)NC(=O)NC1c1ccc(C)cc1 (centres undefined)
18,783 s,Cc1ccc(N(CN2CCCC2=O)C(=O)c2ccc(C)c(C)c2)cc1
19,646 s,CCOC(=O)C1CCN(C(=O)C2CCCN(c3nc4ccccc4[nH]3)C2)CC1 (centres undefined)
20,681 s,CC1CCCN(CC2CCN(S(=O)(=O)c3cc(F)cc(F)c3)CC2)C1 (centres undefined)
21,651 s,O=C(NCc1ccco1)c1cn(-c2cc(N3CCOCC3)ncn2)cn1
22,654 s,Cc1nnc2c(=O)n(CC(=O)NCc3ccccc3)c3cccnc3n12

row,RP-LC retention time,Structure (SMILES)
1,731 s,CCOC(=O)N1CCC(NC(=O)Cn2ccc3ccccc32)CC1
2,634 s,O=C(c1ccc(Cl)cc1)N1CCN(c2cnn3cnnc3c2)CC1
3,1310 s,CC(C)(C)c1ccc(C(=O)Nc2nc(-c3ccc(F)cc3)cs2)cc1
4,734 s,Cn1nc(C(=O)N2CC(n3cc(C(=O)NCC4CC4)nn3)C2)c2ccccc21
5,751 s,O=C(NC1CCN(c2cc(-c3ccc(Cl)cc3)[nH]n2)C1)c1ccccn1 (centres undefined)
6,902 s,CCc1nc(OCC(=O)NCc2ccc3c(c2)OCO3)c2ccccc2n1
7,655 s,O=C(Nc1cccc(C(F)(F)F)c1)Nc1c(-c2ccncc2)nc2ccccn12
8,911 s,CC(C)NC(=O)Cn1nc2c3cc(-c4ccc(C(C)C)cc4)nn3ccn2c1=O
9,1120 s,Cc1cccc(C2(O)C(=O)N(Cc3nc(-c4ccccc4)oc3C)c3ccccc32)c1 (centres undefined)
10,806 s,CC1=C(c2cccc(Cl)c2)S(=O)(=O)N=C1N1CCCN(C(=O)c2ccoc2)CC1
11,611 s,CCNC(=O)c1cc(C2CC2)[nH]n1
12,724 s,O=C1CCCc2cc(S(=O)(=O)N3CCC(C(=O)NCc4ccc(F)cc4)CC3)ccc2N1
13,682 s,CCC(C)N(CCNC(=O)Cc1noc2ccc(C)cc12)Cc1ccco1 (centres undefined)
14,833 s,O=C(NCCc1cccs1)C1CCN(Cc2cc3ccccc3n2Cc2cccc(Cl)c2)CC1
15,773 s,CCNC(=O)C1CCCN(C(=O)Nc2ccc(NC(=O)Nc3ccc(CC)cc3)cc2)C1 (centres undefined)
16,686 s,COc1cc(=O)c(C(=O)NC(C)C)nn1-c1ccc(F)cc1
17,598 s,COc1nn(C)cc1C(=O)Nc1nnc(-c2sc(C)nc2C)o1
18,721 s,CCCc1nnc(NC(=O)C2CCN(C(=O)c3ccc(F)cc3)CC2)s1
19,779 s,Cc1cc(C)cc(Nc2c(-c3ccc(C(=O)O)cc3)nc3cnccn23)c1
20,936 s,Fc1ccc(-c2nc3cnccn3c2Nc2ccc(Cl)cc2)cc1
21,597 s,Cn1nnnc1NCc1ccc2c(c1)n(C)c(=O)n2C
22,852 s,CCOc1ccc2c(n1)CCN(C(=O)Nc1ccc(C)cc1C)C2

row,RP-LC retention time,Structure (SMILES)
1,548 s,O=C(Nc1nc2c(s1)CN(Cc1ccccc1)CC2)c1cccc(N2C(=O)CCC2=O)c1
2,944 s,O=C(Cn1cccc1-c1nc(-c2ccc(F)cc2)no1)Nc1ccc2c(c1)OCCO2
3,906 s,Cc1cccc(-n2cc(C(=O)OCc3cc(=O)n4ccccc4n3)c3ccccc3c2=O)c1
4,1200 s,Cc1cccc(Oc2cc(N3CCC(C(=O)Nc4cccc(C(C)C)c4)CC3)ncn2)c1C
5,1030 s,Cc1ccc(-n2c(=O)c3sccc3n(Cc3nc(-c4ccc(F)cc4)no3)c2=O)cc1
6,719 s,O=C(CN1CCC(c2nc(-c3cccc(F)c3)no2)CC1)Nc1ccc2c(c1)OCO2
7,666 s,O=C(Cc1ccsc1)Nc1ccc2ncnc(N3CCCCC3)c2c1
8,645 s,COc1cccc(N2C=C(C(=O)N3CCOCC3)S(=O)(=O)c3ccccc32)c1
9,688 s,Cn1c(C2CCN(C(=O)c3cccc(Cl)c3)C2)nc2cccnc21 (centres undefined)
10,631 s,CCOC(=O)c1ccc(NC(=O)Nc2c(-c3ccncc3)nc3ccccn23)cc1
11,623 s,O=C(COc1ccc(Cl)cc1)NCC1(O)CCOCC1
12,957 s,Cn1nc(-c2nc(-c3cccc(F)c3)no2)c2c1CCN(C(=O)NC1CCCC1)C2
13,868 s,CCCN(CC1CCOC1)C(=O)c1cc(C)cc(C)c1 (centres undefined)
14,855 s,Cc1nc(-c2ccc(NC(=O)c3ccc([N+](=O)[O-])cc3)cc2)cs1
15,747 s,Cc1cccc(NC(=O)Nc2ccc3nnc(C)n3c2)c1
16,675 s,CCCCc1ccc(NC(=O)N2CCc3nc[nH]c3C2)cc1
17,1320 s,CCOc1nc2ccccc2nc1N1CCCC(C(=O)Nc2cc(C)cc(C)c2)C1 (centres undefined)
18,768 s,Cc1nn(CC(=O)NC(C)(C)C)c(=O)c2c(C)n(-c3ccccc3)nc12
19,831 s,CCCN1C(=O)Cc2ccccc2C1C(=O)NCc1ccccc1Br (centres undefined)
20,806 s,Cc1ccsc1C(=O)NC1(c2nc(-c3cnccn3)no2)CCCCC1

row,Structure (SMILES),RP-LC retention time
1,CCc1nc2cc(N3CCCC(C(=O)N4CCC5(CC4)OCCO5)C3)cnc2nc1CC (centres undefined),769 s
2,O=C(NCC1CCOCC1)c1cnc(Nc2ccc(Cl)cc2Cl)nc1C(F)(F)F,997 s
3,CCCNC(=O)N1[C@H]2CC[C@@H]1c1cnc(-c3ccc(F)cc3)nc1C2,829 s
